Where “and” joins values, the source holds several entries; their conditions need not be identical. Identical values can stand only once. Toxic doses and inconclusive results are not listed. Rule for the calls: active = survival T/C of 150% or more; inactive = T/C below 125% in these data. Square brackets hold non-standard residues; d marks the D form. Peptide text beside a SMILES is read from it. Tyr(3,5-I2) = N[CH](Cc1cc(I)c(O)c(I)c1)C(=O)O; Hpg = N[CH](C(=O)O)c1ccc(O)cc1
System: P388 leukemia ip, CD2F1 mice, survival T/C
Assay: NCI In Vivo Anticancer Drug Screen. Data for tumor model P388 Leukemia (intraperitoneal) in CD2F1 (CDF1) mice
Details: endpoint: median survival time, higher = longer survival
How it was run: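 Mice carrying the transplanted tumor received test compound or vehicle. Survival was recorded in each group, and the value is the treated-group measurement divided by that of the vehicle-treated control group.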

[1] = dose: 25.0 mg/kg/injection, schedule: Q01DX009 (ip), vehicle: water
[2] = dose: 50.0 mg/kg/injection, schedule: Q01DX009 (ip), vehicle: water
[3] = dose: 100.0 mg/kg/injection, schedule: Q01DX009 (ip), vehicle: water
[4] = dose: 200.0 mg/kg/injection, schedule: Q01DX009 (ip), vehicle: water
[5] = dose: 50.0 mg/kg/injection, schedule: Q01DX009 (ip), vehicle: saline
[6] = dose: 100.0 mg/kg/injection, schedule: Q01DX009 (ip), vehicle: saline
[7] = dose: 200.0 mg/kg/injection, schedule: Q01DX009 (ip), vehicle: saline
[8] = dose: 100.0 mg/kg/injection, schedule: Q01DX009 (ip), vehicle: saline with Tween-80
[9] = dose: 200.0 mg/kg/injection, schedule: Q01DX009 (ip), vehicle: saline with Tween-80
[10] = dose: 400.0 mg/kg/injection, schedule: Q01DX009 (ip), vehicle: saline with Tween-80
[11] = dose: 60.0 mg/kg/injection, schedule: Q01DX005 (ip), vehicle: saline with Tween-80
[12] = dose: 120.0 mg/kg/injection, schedule: Q01DX005 (ip), vehicle: saline with Tween-80
[13] = dose: 240.0 mg/kg/injection, schedule: Q01DX005 (ip), vehicle: saline with Tween-80
[14] = dose: 50.0 mg/kg/injection, schedule: Q01DX005 (ip), vehicle: Klucel (hydroxypropylcellulose) (HPC)
[15] = dose: 100.0 mg/kg/injection, schedule: Q01DX005 (ip), vehicle: Klucel (hydroxypropylcellulose) (HPC)
[16] = dose: 200.0 mg/kg/injection, schedule: Q01DX005 (ip), vehicle: Klucel (hydroxypropylcellulose) (HPC)

Measured: T/C

CCCC(=O)Oc1ccc[nH]c1=O
inactive: dose: 3.13 mg/kg/injection, schedule: Q01DX009 (ip), vehicle: distilled water + Tween-80 100 % of control | dose: 3.13 mg/kg/injection, schedule: Q01DX009 (ip), vehicle: water 92 % of control | dose: 6.25 mg/kg/injection, schedule: Q01DX009 (ip), vehicle: distilled water + Tween-80 107 % of control | dose: 6.25 mg/kg/injection, schedule: Q01DX009 (ip), vehicle: water 92 % of control | dose: 12.5 mg/kg/injection, schedule: Q01DX009 (ip), vehicle: distilled water + Tween-80 106 % of control | dose: 12.5 mg/kg/injection, schedule: Q01DX009 (ip), vehicle: water 92 % of control | dose: 25.0 mg/kg/injection, schedule: Q01DX009 (ip), vehicle: distilled water + Tween-80 100 % of control | [1] 99 % of control and 107 % of control | dose: 50.0 mg/kg/injection, schedule: Q01DX009 (ip), vehicle: distilled water + Tween-80 109 % of control | [2] 114 % of control | [3] 114 % of control | [4] 115 % of control

C/C(=N/NS(=O)(=O)c1ccc(C)cc1)C(=NO)/C(C)=N\NS(=O)(=O)c1ccc(C)cc1
inactive: [5] 92 % of control | [6] 100 % of control | [7] 101 % of control

ICC1COC(CI)CO1 (stereo unspecified)
inactive: [8] 100 % of control | [9] 104 % of control | [10] 90 % of control

CCCCCCCCCCC1SCC(=O)N1c1nncs1 (stereo unspecified)
inactive: [11] 102 % of control | [12] 97 % of control | [13] 94 % of control

CC(CN=C(CC(=O)C(F)(F)F)C(F)(F)F)N=C(CC(=O)C(F)(F)F)C(F)(F)F.[Ni] (stereo unspecified)
inactive: dose: 100.0 mg/kg/injection, schedule: Q04DX002 (ip), vehicle: saline with Tween-80 98 % of control | dose: 200.0 mg/kg/injection, schedule: Q04DX002 (ip), vehicle: saline with Tween-80 98 % of control | dose: 400.0 mg/kg/injection, schedule: Q04DX002 (ip), vehicle: saline with Tween-80 93 % of control

CCCCCN(CCCCC)CC(O)c1c(OC)ccc2ccccc12 (stereo unspecified)
inactive: dose: 12.5 mg/kg/injection, schedule: Q01DX009 (ip), vehicle: Klucel (hydroxypropylcellulose) (HPC) 102 % of control | dose: 25.0 mg/kg/injection, schedule: Q01DX009 (ip), vehicle: Klucel (hydroxypropylcellulose) (HPC) 103 % of control | dose: 50.0 mg/kg/injection, schedule: Q01DX009 (ip), vehicle: Klucel (hydroxypropylcellulose) (HPC) 94 % of control

N#Cc1cnn(C(N)=O)c1N
inactive: [8] 110 % of control | dose: 100.0 mg/kg/injection, schedule: Q04DX003 (ip), vehicle: saline with Tween-80 100 % of control | [9] 110 % of control | dose: 200.0 mg/kg/injection, schedule: Q04DX003 (ip), vehicle: saline with Tween-80 100 % of control | [10] 100 % of control | dose: 400.0 mg/kg/injection, schedule: Q04DX003 (ip), vehicle: saline with Tween-80 100 % of control

CC(O)(c1ccc(Br)cc1)C1CC1 (stereo unspecified)
inactive: dose: 100.0 mg/kg/injection, schedule: Q01DX001 (ip), vehicle: Klucel (hydroxypropylcellulose) (HPC) 103 % of control | dose: 200.0 mg/kg/injection, schedule: Q01DX001 (ip), vehicle: Klucel (hydroxypropylcellulose) (HPC) 91 % of control | dose: 400.0 mg/kg/injection, schedule: Q01DX001 (ip), vehicle: Klucel (hydroxypropylcellulose) (HPC) 96 % of control

CCOC(=O)C1C/C(=N\OC(C)=O)c2ccc(OC)c(OC)c2C1 (stereo unspecified)
inactive: dose: 12.5 mg/kg/injection, schedule: Q01DX009 (ip), vehicle: other 110 % of control | dose: 25.0 mg/kg/injection, schedule: Q01DX009 (ip), vehicle: other 101 % of control | dose: 50.0 mg/kg/injection, schedule: Q01DX009 (ip), vehicle: other 98 % of control | dose: 100.0 mg/kg/injection, schedule: Q01DX009 (ip), vehicle: other 87 % of control | dose: 200.0 mg/kg/injection, schedule: Q01DX009 (ip), vehicle: other 88 % of control

CNC(=O)Nc1ccc(C2(C)SCCS2)cc1
inactive: [11] 97 % of control | [12] 87 % of control | [13] 90 % of control

[O-]c1on[n+](-c2ccccc2)c1CN1CCOCC1
inactive: [14] 107 % of control | [15] 111 % of control | [16] 102 % of control

O=C(CCl)N/N=C(\c1ccccc1)c1ccc(Br)cc1
inactive: dose: 45.0 mg/kg/injection, schedule: Q01DX009 (ip), vehicle: saline with Tween-80 103 % of control | dose: 90.0 mg/kg/injection, schedule: Q01DX009 (ip), vehicle: saline with Tween-80 98 % of control | dose: 180.0 mg/kg/injection, schedule: Q01DX009 (ip), vehicle: saline with Tween-80 97 % of control

CO[C@@H]1C2=CC=CC=C[C@H]2n2c(=O)n(-c3ccccc3)c(=O)n21
inactive: [14] 102 % of control | [15] 103 % of control

COc1cccc(/C=N/C(/N=C/c2cccc(OC)c2O)c2cccc(OC)c2O)c1O
inactive: [11] 97 % of control | [12] 97 % of control | [13] 102 % of control

C=C1CCN(c2ccc(Br)cc2)C1=O
inactive: dose: 4.0 mg/kg/injection, schedule: Q01DX009 (ip), vehicle: saline + alcohol 104 % of control | dose: 8.0 mg/kg/injection, schedule: Q01DX009 (ip), vehicle: saline + alcohol 92 % of control | dose: 16.0 mg/kg/injection, schedule: Q01DX009 (ip), vehicle: saline + alcohol 98 % of control | dose: 32.0 mg/kg/injection, schedule: Q01DX009 (ip), vehicle: saline + alcohol 91 % of control | dose: 64.0 mg/kg/injection, schedule: Q01DX009 (ip), vehicle: saline + alcohol 98 % of control

CC(=O)NC(Cc1ccccc1)C(=O)NC(Cc1cc(I)c(O)c(I)c1)C(=O)O (stereo unspecified) (Ac-Phe-[Tyr(3,5-I2)]-OH; configuration not given here)
inactive: [14] 93 % of control | [15] 107 % of control | [16] 99 % of control

CC(C)CC(N)C(=O)NC(C(N)=O)c1ccc(O)cc1 (stereo unspecified) (H-Leu-[Hpg]-NH2; configuration not given here)
inactive: [5] 101 % of control | [6] 92 % of control | [7] 88 % of control

O=C1C(CC=C(Cl)Cl)=C(OC2OC(CO)C(O)C(O)C2O)C(=O)c2ccccc21 (stereo unspecified)
inactive: dose: 3.12 mg/kg/injection, schedule: Q01DX009 (ip), vehicle: saline with Tween-80 103 % of control | dose: 6.25 mg/kg/injection, schedule: Q01DX009 (ip), vehicle: saline with Tween-80 109 % of control | dose: 12.5 mg/kg/injection, schedule: Q01DX009 (ip), vehicle: saline with Tween-80 111 % of control

Cc1cc(C)n(/C(N)=N/[N+](=O)[O-])n1
inactive: [5] 96 % of control | [6] 105 % of control | [7] 86 % of control

CS(=O)(=O)NC(=O)CCC(=O)Nc1ccc(Cl)cc1
inactive: dose: 100.0 mg/kg/injection, schedule: Q01DX001 (ip), vehicle: saline with Tween-80 100 % of control | dose: 200.0 mg/kg/injection, schedule: Q01DX001 (ip), vehicle: saline with Tween-80 97 % of control | dose: 400.0 mg/kg/injection, schedule: Q01DX001 (ip), vehicle: saline with Tween-80 96 % of control

COc1cccc(/C=C/C(=O)O)c1OC
inactive: [1] 98 % of control | [2] 91 % of control | [3] 94 % of control | [4] 100 % of control | dose: 400.0 mg/kg/injection, schedule: Q01DX009 (ip), vehicle: water 98 % of control

CCCCNC1C2CCC(C)(C1O)C2(C)C (stereo unspecified)
inactive: [14] 97 % of control

C=[CH][Sn]([Cl])([Cl])[CH]=C.COc1ccc(P(=O)(c2ccc(OC)cc2)c2ccc(OC)cc2)cc1
inactive: dose: 25.0 mg/kg/injection, schedule: Q04DX003 (ip), vehicle: saline 100 % of control and 113 % of control | dose: 50.0 mg/kg/injection, schedule: Q04DX003 (ip), vehicle: saline 100 % of control and 111 % of control | dose: 100.0 mg/kg/injection, schedule: Q04DX003 (ip), vehicle: saline 100 % of control and 115 % of control and 120 % of control | dose: 200.0 mg/kg/injection, schedule: Q04DX003 (ip), vehicle: saline 100 % of control and 111 % of control | dose: 400.0 mg/kg/injection, schedule: Q04DX003 (ip), vehicle: saline 117 % of control

From PubChem BioAssay AID330 (DTP/NCI, 2004)
